The values below come from paper PMC6709783, “Structural Basis for Allosteric Ligand Recognition in the Human CC Chemokine Receptor 7” (Cell, 2019).

One assay has as its target T1, human CCR7 (Homo sapiens, UniProt P32248, L145W).
T1 construct: enhanced green fluorescent protein (eGFP) (C); decahistidine-tag (His10) (C); made in house; host or cells: Sf9 insect cells (baculovirus)
T1 sequence (P32248 25-348 L145W): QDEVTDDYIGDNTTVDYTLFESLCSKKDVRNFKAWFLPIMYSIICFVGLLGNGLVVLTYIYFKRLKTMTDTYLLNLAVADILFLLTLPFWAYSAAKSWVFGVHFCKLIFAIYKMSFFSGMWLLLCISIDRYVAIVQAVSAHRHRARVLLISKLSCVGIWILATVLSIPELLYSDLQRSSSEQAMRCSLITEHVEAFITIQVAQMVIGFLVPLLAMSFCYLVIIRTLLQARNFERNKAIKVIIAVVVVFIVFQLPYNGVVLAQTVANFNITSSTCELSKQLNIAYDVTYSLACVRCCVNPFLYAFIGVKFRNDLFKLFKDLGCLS
The assay can be described thus: Thermofluor stability assay (thermal shift, CPM dye) with purified CCR7-L145W. Format: binding. The following applies: Figure 4B; for thermo-stabilizing effect on CCR7 (in words): known chemokine receptor ligands tested for selectivity of the pocket. The procedure:
The plate was sealed and incubated for 30 min on ice. A 1:100 (v/v) working solution of the CPM (N-[4-(7-diethylamino-4-methyl-3-coumarinyl)phenyl]maleimide) dye stock (3 mg/mL in DMSO) was prepared and 5.14 μL of this solution were added to each well and mixed thoroughly. Out of each well, 3 × 20 μL were distributed into 0.1 mL Rotor-Gene Q tubes (QIAGEN). […] The gain set was determined at the beginning of the run. The melting temperature (Tm) was calculated from the point of inflection.
All liquid-handling steps were performed using a Bravo automated liquid handling platform and a 96LT head.
Melting temperatures (Tm) in the thermofluor stability assays were calculated and analyzed by automated scripts based on a fit to the Boltzmann equation. Details on significance levels and number of experiments are given in the corresponding figure legends.

The target of another assay is T2, CCR7 (Homo sapiens, UniProt P32248).
T2 construct: host or cells: CHO-K1 (PathHunter eXpress CCR7 β-Arrestin)
T2 sequence (P32248 25-378): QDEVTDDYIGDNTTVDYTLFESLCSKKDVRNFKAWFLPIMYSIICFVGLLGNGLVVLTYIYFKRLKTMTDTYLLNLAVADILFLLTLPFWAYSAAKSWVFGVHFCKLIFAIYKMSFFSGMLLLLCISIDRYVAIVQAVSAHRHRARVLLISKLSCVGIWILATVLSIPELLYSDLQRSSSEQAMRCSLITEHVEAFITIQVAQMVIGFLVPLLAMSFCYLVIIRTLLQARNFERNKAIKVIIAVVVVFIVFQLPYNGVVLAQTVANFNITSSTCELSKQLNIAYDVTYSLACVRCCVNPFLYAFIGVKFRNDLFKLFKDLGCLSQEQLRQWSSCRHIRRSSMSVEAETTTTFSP
The assay can be described thus: Cellular arrestin recruitment assay (PathHunter eXpress CCR7 CHO-K1 β-Arrestin). It counts as cell-based. The following applies: agonist concentration used for challenge. The source says: Microplates were read following signal generation with a PerkinElmer Envision™ instrument for chemiluminescent signal detection.
Background: Arrestin recruitment assays detect the binding of arrestin to an activated receptor.

The subject of the next assay is CCR5 receptor. The following applies: ref Knepp et al., 2011; cited from earlier work.
Assay [1] has as its target T3, CCR7 in PathHunter eXpress CCR7 CHO-K1 β-Arrestin cells (human, UniProt P32248 25-378).
T3 sequence (looked up): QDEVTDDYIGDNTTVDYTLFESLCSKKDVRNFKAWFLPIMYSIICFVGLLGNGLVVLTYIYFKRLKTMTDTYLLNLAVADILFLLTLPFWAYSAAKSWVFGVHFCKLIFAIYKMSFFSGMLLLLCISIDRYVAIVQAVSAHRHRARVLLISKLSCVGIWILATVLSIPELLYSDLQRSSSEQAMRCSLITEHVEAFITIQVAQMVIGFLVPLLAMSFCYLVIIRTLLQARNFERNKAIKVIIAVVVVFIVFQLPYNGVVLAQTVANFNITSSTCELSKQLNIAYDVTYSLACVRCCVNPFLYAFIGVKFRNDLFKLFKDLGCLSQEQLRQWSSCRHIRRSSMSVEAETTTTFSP
Briefly: cell-based or functional assay.

On to `CCOc1ccc(NC(=O)C2CCN(C3=NS(=O)(=O)C(c4ccc(OC)cc4)=C3C)CC2)cc1` [CS-1], for which, on human CCR7 (hit from virtual and automated thermofluor screening (50 μM ligand)), the “stabilizing effect on CCR7” value is 2.4 °C. In the case of `CC1(C)CN2C(CSC(=NC3CCCCC3)NC3CCCCC3)=CSC2=N1` [IT1t], the “thermo-stabilizing effect on CCR7 (in words)” value at human CCR7 is given as “did not affect CCR7”. Still for that read-out and setting: with `CC(C)Cc1ccc([C@@H](C)C(=O)NS(C)(=O)=O)cc1` [Reparixin] the entry was “Neither did the CXCR2 antagonist Danirixin nor the CXCR1 and CXCR2 antagonist Reparixin stabilize CCR7”. In the case of “CCL19: native chemokine agonist of CCR7 (human CCL19)”, the “EC80 concentration, arrestin recruitment” value with CCR7 amounted to 0.057 µM.

As to Maraviroc, the “stabilizing effect on CCR5” value with CCR5 receptor is “up to 18.9 °C”. The “thermo-stabilizing effect on CCR7 (in words)” value on human CCR7 was “did not affect CCR7”.

B1: human CCL19 (ligand, UniProt Q99731 22-98, looked up)
chain: GTNDAEDCCLSVTQKPIPGYIVRNFHYLLIKDGCRVPAVVFTTLRGRQLCAPPDQPWVERIIQRLQRTSAKMKRRSS
modifications: radioactive label (2200 Ci/mmole) on the labeled part of the mixture
For the molecule B1, in assay [1], the “arrestin recruitment in PathHunter eXpress CCR7 CHO-K1 β-Arrestin cells, dose response of CCL19 (EC50)” value was determined as 0.012 µM.
